# Reference: patent US20230180758A1, “SUBSTITUTED PYRROLINE-2-ONES AND THEIR USE AS HERBICIDES” (Bayer Aktiengesellschaft, priority 2020, published 2023)
# Legend:
# Type in all cases: in vivo
# [1] = system: Alopecurus myosuroides; test: Post-emergence herbicidal effect against ALOMY; conditions: visual assessment after about 3 weeks, 100% = plants have died
# Procedure: (§1) 1. Post-Emergence Herbicidal Effect and Crop Plant Compatibility
# (§2) Seeds of monocotyledonous and dicotyledonous weed and crop plants are laid out in sandy loam soil in wood-fibre pots, covered with soil and cultivated in a greenhouse under good growth conditions. 2 to 3 weeks after sowing, the test plants are treated at the one-leaf stage. The compounds of the invention, formulated in the form of wettable powders (WP) or as emulsion concentrates (EC), are then sprayed onto the green parts of the plants as aqueous suspension or emulsion at a water application rate equating to 600 to 800 l/ha with addition of 0.2% wetting agent. After the test plants have been left to stand in the greenhouse under optimal growth conditions for about 3 weeks, the action of the preparations is assessed visually in comparison to untreated controls (herbicidal action in percent (%): 100% activity=the plants have died, 0% activity=like control plants).
# [2] = system: Avena fatua; test: Post-emergence herbicidal effect against AVEFA; conditions: 80 g/ha, visual assessment after about 3 weeks, 100% = plants have died
# Procedure: as §1, §2
# [3] = system: Digitaria sanguinalis; test: Post-emergence herbicidal effect against DIGSA; conditions: visual assessment after about 3 weeks, 100% = plants have died
# Procedure: as §1, §2
# [4] = system: Echinochloa crus-galli; test: Post-emergence herbicidal effect against ECHCG; conditions: visual assessment after about 3 weeks
# Procedure: as §1, §2
# [5] = system: Lolium rigidum; test: Post-emergence herbicidal effect against LOLRI; conditions: 80 g/ha, visual assessment after about 3 weeks
# Procedure: as §1, §2
# [6] = system: Setaria viridis; test: Post-emergence herbicidal effect against SETVI; conditions: visual assessment after about 3 weeks
# Procedure: as §1, §2
# [7] = system: Hordeum murinum; test: Post-emergence herbicidal effect against HORMU; conditions: 80 g/ha, visual assessment after about 3 weeks
# Procedure: as §1, §2
# [8] = system: Alopecurus myosuroides; test: Pre-emergence herbicidal effect against ALOMY; conditions: 320 g/ha, scored visually after 3 weeks
# Excerpt: (§3) 2. Pre-Emergence Herbicidal Effect and Crop Plant Compatibility
# (§4) Seeds of monocotyledonous and dicotyledonous weed plants and crop plants are laid out in sandy loam soil in wood-fibre pots and covered with soil. The compounds of the invention, formulated in the form of wettable powders (WP) or as emulsion concentrates (EC), are then applied to the surface of the covering soil as aqueous suspension or emulsion at a water application rate equating to 600 to 800 L/ha with addition of 0.2% wetting agent.
# (§5) After the treatment, the pots are placed in a greenhouse and kept under good growth conditions for the trial plants. The damage to the test plants is scored visually after a test period of 3 weeks by comparison with untreated controls (herbicidal activity in percent (%): 100% activity=the plants have died, 0% activity=like control plants).
# [9] = system: Avena fatua; test: Pre-emergence herbicidal effect against AVEFA; conditions: 320 g/ha, scored visually after 3 weeks
# Excerpt: as §3, §4, §5
# [10] = system: Echinochloa crus-galli; test: Pre-emergence herbicidal effect against ECHCG; conditions: 320 g/ha, scored visually after 3 weeks
# Excerpt: as §3, §4, §5
# [11] = system: Lolium rigidum; test: Pre-emergence herbicidal effect against LOLRI; conditions: scored visually after 3 weeks
# Excerpt: as §3, §4, §5
compound,measurement,setting,value
CCOC(=O)OC1=C(c2c(C)cc(C)cc2OC)C(=O)NC12COC1(CCOCC1)OC2 [Example 4-1],Post-emergence action against ALOMY,[1]; 20 g/ha,100%
same,Post-emergence action against ALOMY,[1]; 80 g/ha,100%
same,Post-emergence action against AVEFA,[2],100%
same,Post-emergence action against DIGSA,[3]; 20 g/ha,90%
same,Post-emergence action against DIGSA,[3]; 80 g/ha,90%
same,Post-emergence action against ECHCG,[4]; 80 g/ha,100%
same,Post-emergence action against LOLRI,[5],100%
same,Post-emergence action against SETVI,[6]; 20 g/ha,90%
same,Post-emergence action against SETVI,[6]; 80 g/ha,100%
same,Post-emergence action against HORMU,[7],100%
CCC(=O)OC1=C(c2c(C)cc(C)cc2OC)C(=O)NC12COC1(CCOCC1)OC2 [Example 3-1],Post-emergence action against ALOMY,[1]; 20 g/ha,90%
same,Post-emergence action against ALOMY,[1]; 80 g/ha,100%
same,Post-emergence action against AVEFA,[2],90%
same,Post-emergence action against DIGSA,[3]; 20 g/ha,90%
same,Post-emergence action against DIGSA,[3]; 80 g/ha,100%
same,Post-emergence action against ECHCG,[4]; 80 g/ha,100%
same,Post-emergence action against LOLRI,[5],100%
same,Post-emergence action against SETVI,[6]; 20 g/ha,80%
same,Post-emergence action against SETVI,[6]; 80 g/ha,90%
same,Post-emergence action against HORMU,[7],90%
"COc1cc(Cl)cc(C)c1C1=C(O)C2(COC3(CCOCC3)OC2)NC1=O [Example 2-4, sodium 3-(4-chloro-2-methoxy-6-methylphenyl)-2-oxo-7,11,14-trioxa-1-azadispiro[4.2.5^8.2^5]pentadec-3-en-4-olate]",Post-emergence action against ALOMY,[1]; 20 g/ha,80%
same,Post-emergence action against ALOMY,[1]; 80 g/ha,100%
same,Post-emergence action against AVEFA,[2],100%
same,Post-emergence action against DIGSA,[3]; 20 g/ha,90%
same,Post-emergence action against DIGSA,[3]; 80 g/ha,90%
same,Post-emergence action against ECHCG,[4]; 80 g/ha,80%
same,Post-emergence action against LOLRI,[5],90%
same,Post-emergence action against SETVI,[6]; 20 g/ha,80%
same,Post-emergence action against SETVI,[6]; 80 g/ha,80%
"COc1cc(Cl)cc(C)c1C1=C(O)C2(COC3(CCOCC3)OC2)NC1=O [Example 1-4, 3-(4-chloro-2-methoxy-6-methylphenyl)-4-hydroxy-7,11,14-trioxa-1-azadispiro[4.2.5^8.2^5]pentadec-3-en-2-one]",Post-emergence action against ALOMY,[1]; 20 g/ha,90%
same,Post-emergence action against ALOMY,[1]; 80 g/ha,100%
same,Post-emergence action against AVEFA,[2],100%
same,Post-emergence action against DIGSA,[3]; 20 g/ha,80%
same,Post-emergence action against DIGSA,[3]; 80 g/ha,80%
same,Post-emergence action against ECHCG,[4]; 80 g/ha,80%
same,Post-emergence action against LOLRI,[5],100%
same,Post-emergence action against SETVI,[6]; 20 g/ha,80%
same,Post-emergence action against SETVI,[6]; 80 g/ha,90%
"CCOC(=O)OC1=C(c2c(C)cc(Cl)cc2OC)C(=O)NC12COC1(CCOCC1)OC2 [Example 4-4, 3-(4-chloro-2-methoxy-6-methylphenyl)-2-oxo-7,11,14-trioxa-1-azadispiro[4.2.5^8.2^5]pentadec-3-en-4-yl ethyl carbonate]",Post-emergence action against ALOMY,[1]; 20 g/ha,90%
same,Post-emergence action against ALOMY,[1]; 80 g/ha,100%
same,Post-emergence action against AVEFA,[2],80%
same,Post-emergence action against DIGSA,[3]; 20 g/ha,90%
same,Post-emergence action against DIGSA,[3]; 80 g/ha,90%
same,Post-emergence action against ECHCG,[4]; 80 g/ha,100%
same,Post-emergence action against LOLRI,[5],90%
same,Post-emergence action against SETVI,[6]; 20 g/ha,80%
same,Post-emergence action against SETVI,[6]; 80 g/ha,90%
COc1cc(C)cc(C)c1C1=C([O-])C2(COC3(CCOCC3)OC2)N(C)C1=O.[Na+] [Example 6-1],Post-emergence action against ALOMY,[1]; 80 g/ha,90%
same,Post-emergence action against ECHCG,[4]; 20 g/ha,90%
same,Post-emergence action against ECHCG,[4]; 80 g/ha,100%
same,Post-emergence action against LOLRI,[5],90%
same,Post-emergence action against SETVI,[6]; 20 g/ha,90%
same,Post-emergence action against SETVI,[6]; 80 g/ha,90%
same,Pre-emergence action against ALOMY,[8],100%
same,Pre-emergence action against AVEFA,[9],90%
same,Pre-emergence action against ECHCG,[10],100%
same,Pre-emergence action against LOLRI,[11]; 80 g/ha,100%
same,Pre-emergence action against LOLRI,[11]; 320 g/ha,100%
COc1cc(C)cc(C)c1C1=C(O)C2(COC3(CCOCC3)OC2)N(C)C1=O [Example 5-1],Post-emergence action against ALOMY,[1]; 20 g/ha,80%
same,Post-emergence action against ALOMY,[1]; 80 g/ha,90%
same,Post-emergence action against ECHCG,[4]; 20 g/ha,100%
same,Post-emergence action against ECHCG,[4]; 80 g/ha,100%
same,Post-emergence action against LOLRI,[5],90%
same,Post-emergence action against SETVI,[6]; 20 g/ha,90%
same,Post-emergence action against SETVI,[6]; 80 g/ha,90%
same,Pre-emergence action against ALOMY,[8],90%
same,Pre-emergence action against AVEFA,[9],100%
same,Pre-emergence action against ECHCG,[10],100%
same,Pre-emergence action against LOLRI,[11]; 80 g/ha,100%
same,Pre-emergence action against LOLRI,[11]; 320 g/ha,100%
COc1cc(C)cc(C)c1C1=C(O)C2(COC3(CCOCC3)OC2)NC1=O [Example 1-1],Post-emergence action against ALOMY,[1]; 20 g/ha,100%
same,Post-emergence action against ALOMY,[1]; 80 g/ha,100%
same,Post-emergence action against AVEFA,[2],100%
same,Post-emergence action against DIGSA,[3]; 20 g/ha,100%
same,Post-emergence action against DIGSA,[3]; 80 g/ha,100%
same,Post-emergence action against ECHCG,[4]; 80 g/ha,100%
same,Post-emergence action against LOLRI,[5],100%
same,Post-emergence action against SETVI,[6]; 20 g/ha,100%
same,Post-emergence action against SETVI,[6]; 80 g/ha,100%
same,Post-emergence action against HORMU,[7],100%
CCOC(=O)OC1=C(c2c(C)cc(C)cc2OC)C(=O)N(C)C12COC1(CCOCC1)OC2 [Example 8-1],Post-emergence action against ECHCG,[4]; 20 g/ha,80%
same,Post-emergence action against ECHCG,[4]; 80 g/ha,90%
same,Post-emergence action against LOLRI,[5],90%
same,Post-emergence action against SETVI,[6]; 20 g/ha,80%
same,Post-emergence action against SETVI,[6]; 80 g/ha,100%
same,Pre-emergence action against ALOMY,[8],100%
same,Pre-emergence action against AVEFA,[9],100%
same,Pre-emergence action against ECHCG,[10],100%
same,Pre-emergence action against LOLRI,[11]; 80 g/ha,100%
same,Pre-emergence action against LOLRI,[11]; 320 g/ha,100%
"CCC(=O)OC1=C(c2c(C)cc(Cl)cc2OC)C(=O)NC12COC1(CCOCC1)OC2 [Example 3-4, 3-(4-chloro-2-methoxy-6-methylphenyl)-2-oxo-7,11,14-trioxa-1-azadispiro[4.2.5^8.2^5]pentadec-3-en-4-yl propionate]",Post-emergence action against ALOMY,[1]; 20 g/ha,90%
same,Post-emergence action against ALOMY,[1]; 80 g/ha,100%
same,Post-emergence action against AVEFA,[2],100%
same,Post-emergence action against DIGSA,[3]; 20 g/ha,100%
same,Post-emergence action against DIGSA,[3]; 80 g/ha,100%
same,Post-emergence action against ECHCG,[4]; 80 g/ha,100%
same,Post-emergence action against LOLRI,[5],100%
same,Post-emergence action against SETVI,[6]; 20 g/ha,80%
same,Post-emergence action against SETVI,[6]; 80 g/ha,90%
COc1cc(C)cc(C)c1C1=C([O-])C2(COC3(CCOCC3)OC2)NC1=O.[Na+] [Example 2-1],Post-emergence action against ALOMY,[1]; 20 g/ha,90%
same,Post-emergence action against ALOMY,[1]; 80 g/ha,100%
same,Post-emergence action against AVEFA,[2],100%
same,Post-emergence action against DIGSA,[3]; 20 g/ha,90%
same,Post-emergence action against DIGSA,[3]; 80 g/ha,90%
same,Post-emergence action against ECHCG,[4]; 80 g/ha,100%
same,Post-emergence action against LOLRI,[5],100%
same,Post-emergence action against SETVI,[6]; 20 g/ha,90%
same,Post-emergence action against SETVI,[6]; 80 g/ha,90%
same,Post-emergence action against HORMU,[7],90%
